Experimental data from patent US8883758B2, “3,5-disubstituted and 3,5,7-trisubstituted-3H-oxazolo and 3H-thiazolo[4,5-d]pyrimidin-2-one compounds and prodrugs thereof” (Anadys Pharmaceuticals, Inc., priority 2004, dated 2014).

Test system: fresh cynomolgus monkey hepatocytes
Experiment: Metabolism of Formula I prodrugs to 6-oxy metabolites in fresh cynomolgus monkey hepatocytes (LC/MS/MS)
Type: in vitro ADME
Experimental: A study was undertaken to evaluate the metabolic stability of Formula I compounds 14, 15, 13, 114, 30, 103, 67, 65, and 76 in the presence of fresh cynomolgus monkey hepatocytes and monitor the formation of 6-oxy metabolites, i.e., Formula II compounds and other compounds of the invention. For comparison, the metabolic stability of famciclovir was also assessed.
Fresh cynomolgus monkey hepatocyte suspension (Lot #: Cy141) was purchased from CellzDirect (Tucson, Ariz.). Hepatocyte Incubation Medium (serum-free, sterile) was purchased from In Vitro Technologies (Baltimore, Md.).
The cynomolgus monkey hepatocyte suspension was prepared from fresh cynomolgus monkey hepatocytes in hepatocyte incubation medium at the concentration of 1.25 million cells/mL. The final incubation concentration (after test article addition) was 1.0 million cells/mL.
Existing 100 mM stock solutions in DMSO were used. The concentrations of the test articles were checked using UV-vis microplate reader. Correction coefficients were determined using the absorbance of a freshly prepared DMSO stock of 122.
Reaction suspensions were prepared in removable 96-well tubes, each containing 320 μL of fresh cynomolgus monkey hepatocyte suspension at the density of 1.25 million cells per mL and 40 μL of hepatocyte incubation medium. The above mixtures were pre-incubated open at 37° C., 95% humidity and 5% CO2 for 30 minutes. Reactions were initiated by the addition of 40 μL of test article at 10× concentration to each tube to achieve the final concentrations of 50 μM for the test article(s) and 1 million/mL cell density. The reaction suspension in each tube was mixed by inverting the tube several times. Aliquots of 50 μL from each reaction suspension were distributed into six additional removable 96-well tubes (one tube per time point taken at 15, 30, 45, 60, 90, and 120 minutes). The open tubes were incubated at 37° C. under 95% humidity and 5% CO2.
At predetermined time points, reactions were terminated by the addition of 150 μL of the stop solution to each tube containing 50 μL of the reaction suspension. The composition of the stop solution was the following: 15 mL of acetonitrile (containing 1 μg/mL nebularine as an internal standard and 0.1% formic acid) combined with 1 mL water.
The calibration curves were prepared in the following way. To 80 μL of cell suspension (at the cell density of 1.25 million/mL) 10 μL of hepatocyte incubation medium and 10 μL of the appropriate concentration of the compound in hepatocyte incubation medium were added Immediately following the compound addition, 300 μL of the stop solution (see above) was added.
All quenched samples were kept on wet ice until they were processed for analysis. Then they were mixed using a bench top Multi-Tube Vortexer (VWR Scientific Products) for approximately 30 seconds, and centrifuged at 4,000 rpm (3,220 rcf) for 10 minutes at 4° C. Clear supernatant (100 μl) was transferred into a clean deep well 96-well plate, evaporated to dryness under nitrogen, reconstituted in 100 μL of 90:10 water:acetonitrile, and analyzed for the parent form and metabolites of the test article using an appropriate LC/MS/MS method.
The compounds were quantified on an API3000 LC/MS/MS instrument in the ESI-Positive MRM (multiple reaction monitoring) mode.

CC(=O)OC[C@@H]1C[C@@H](OC(C)=O)[C@H](n2c(=O)sc3cnc(N)nc32)O1 [Compound 14, 5-Amino-3-(2′,5′-di-O-acetyl-3′-deoxy-β-D-ribofuranosyl)-3H-thiazolo[4,5-d]pyrimidin-2-one]
Metabolism to the corresponding 6-oxy metabolite: metabolized to yield the corresponding 6-oxy metabolites

CC(=O)O[C@@H]1C[C@@H](CO)O[C@H]1n1c(=O)sc2cnc(N)nc21 [Compound 15, 5-Amino-3-(2′-O-acetyl-3′-deoxy-β-D-ribofuranosyl)-3H-thiazolo[4,5-d]pyrimidin-2-one]
Metabolism to the corresponding 6-oxy metabolite: metabolized to yield the corresponding 6-oxy metabolites

C[C@@]1(O)[C@@H](CO)O[C@@H](n2c(=O)sc3cnc(N)nc32)[C@@H]1O [Compound 30, 5-Amino-3-(3′-methyl-β-D-ribofuransyl)-3H-thiazolo[4,5-d]pyrimidin-2-one]
Metabolism to the corresponding 6-oxy metabolite: metabolized to yield the corresponding 6-oxy metabolites

Nc1ncc2sc(=O)n(C3O[C@H](CO)[C@@H](CO)[C@H]3O)c2n1 (stereo partly drawn) [Compound 65, (3′S)-5-Amino-3-(3′-deoxy-3′-hydroxymethyl-β-D-ribofuranosyl)-3H-thiazolo[4,5-d]pyrimidin-2-one]
Metabolism to the corresponding 6-oxy metabolite: metabolized to yield the corresponding 6-oxy metabolites

CC(=O)OCC[C@H]1O[C@@H](n2c(=O)sc3cnc(N)nc32)[C@H](OC(C)=O)[C@@H]1OC(C)=O [Compound 67, 5-Amino-3-(5′-O-acetoxymethyl-2′,3′-di-O-acetyl-5′-deoxy-β-D-ribofuranosyl)-3H-thiazolo[4,5-d]pyrimidin-2-one]
Metabolism to the corresponding 6-oxy metabolite: metabolized to yield the corresponding 6-oxy metabolites

C=C1[C@@H](O)[C@H](n2c(=O)sc3cnc(N)nc32)O[C@@H]1CO [Compound 76, 5-Amino-3-(3′-deoxy-3′-methylidene-β-D-ribofuranosyl)-3H-thiazolo[4,5-d]pyrimidin-2-one]
Metabolism to the corresponding 6-oxy metabolite: metabolized to yield the corresponding 6-oxy metabolites

CC(=O)OC[C@H]1O[C@@H](n2c(=O)sc3cnc(N)nc32)[C@H](OC(C)=O)[C@@]1(C)OC(C)=O [Compound 103, 5-Amino-3-(3′-methyl, 2′,3′,5′-tri-O-acetyl-β-D-xylofuranosyl)-3H-thiazolo[4,5-d]pyrimidin-2-one]
Metabolism to the corresponding 6-oxy metabolite: metabolized to yield the corresponding 6-oxy metabolites

CC(=O)OC[C@H]1O[C@@H](n2c(=O)sc3cnc(N)nc32)[C@H](OC(C)=O)[C@H]1OC(C)=O [Compound 114, 5-Amino-3-(2′,3′,5′-tri-O-acetyl-β-D-xylofuranosyl)-3H-thiazolo[4,5-d]pyrimidin-2-one]
Metabolism to the corresponding 6-oxy metabolite: metabolized to yield the corresponding 6-oxy metabolites

CC(=O)OCC(CCn1cnc2cnc(N)nc21)COC(C)=O [Famciclovir, reference compound]
Metabolism to the corresponding 6-oxy metabolite: metabolized to yield the corresponding 6-oxy metabolites
